Columns and labels:
[1] = target: T1, purinergic P2X2 ligand-gated ion channel (Homo sapiens, UniProt Q9UBL9); test: ATP dose response in FLIPR membrane potential assay with DiSBAC1(3); assay type: cell-based; settings: ATP dose response in P2X2 cells loaded with DiSBAC1(3); worded as 'should be approximately'
T1 construct: expressed in transfected cells; host or cells: 1321N1 astrocytoma cells
T1 sequence (Q9UBL9 1-471): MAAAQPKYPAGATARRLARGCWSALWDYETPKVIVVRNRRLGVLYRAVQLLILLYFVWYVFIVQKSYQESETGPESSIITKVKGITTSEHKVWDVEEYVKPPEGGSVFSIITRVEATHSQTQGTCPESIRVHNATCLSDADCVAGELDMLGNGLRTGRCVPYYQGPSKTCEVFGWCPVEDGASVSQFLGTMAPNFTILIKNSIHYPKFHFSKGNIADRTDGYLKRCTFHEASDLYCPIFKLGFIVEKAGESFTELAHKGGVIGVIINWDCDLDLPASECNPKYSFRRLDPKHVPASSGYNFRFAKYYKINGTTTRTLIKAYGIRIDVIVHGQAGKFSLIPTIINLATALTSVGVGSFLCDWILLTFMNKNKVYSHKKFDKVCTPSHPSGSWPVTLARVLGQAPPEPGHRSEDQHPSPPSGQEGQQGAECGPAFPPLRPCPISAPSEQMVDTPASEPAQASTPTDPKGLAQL

P2X2 cells = test: FLIPR membrane potential assay, fluorescence response of dyes in P2X2 cells; assay type: cell-based; settings: for Fluorescence enhancement by 10 μM ATP stimulation (in folds) / Response speed: P2X2 cells, FLIPR; for Response speed: ATP stimulation; for Response to membrane potential change (speed, in words): compared with other DiBAC/DiSBAC dyes; for Signal strength: compared with other members of the DiBAC and DiSBAC family, FLIPR and other fluorescence devices
Text: This specific example illustrates how to use DiSBA1(3) in P2X2 cells in combination with the FLIPR™ fluorescent imaging plate reader sold by Molecular Devices Corp. of Sunnyvale, Calif. P2X2 cells are 1321 N1 astrocytoma cells transfected to overexpress the purinergic P2X2 ligand-gated ion channel. P2X2 belongs to a class of purinergic ion channels that pass calcium and sodium in response to purine, including adenosine 5′-triphosphate (ATP). P2X2 cells are propagated and maintained in DME (high glucose), 10% FCS, 1× Pen/Strep and 2 mM L-glutamine. Doubling time is approximately 36 hours. P2X2 cells should be split at a 1 to 2 ratio upon confluence. The cells should be carried for no more than 20 passages. When approaching this limit, a new frozen vial of cells should be resurrected. Following is a typical kit procedure: • 1. Plate 40,000 P2X2 cells in 100 μL per well for 96 well plates or 10,000 P2X2 cells in 25 μL per well for 384 well plates for overnight.
2. Prepare 1× Loading Buffer. • 2.1 To prepare the 1× Assay Buffer, pipette 10 mL of 10× Reagent Buffer (1× Hanks' Balance Saline Solution+20 mM HPEPES, pH 7.40) and dilute in 90 mL of distilled water. Adjust pH to 7.4 using 1.0 N NaOH and/or 1.0 N HCl. • 2.2 To prepare 10 mM stock solution of DiSBAC1(3), dissolve 3.8 mg DiSBAC1(3) in 1 mL DMSO • 2.3 To prepare 10% pluronic acid, dissolve 400 mg pluronic acid in 4 mL water. Heat to 37° C. to complete dissolution. • 2.4 To prepare 1× Loading Buffer, add 30 μL of stock DiSBAC1(3), 8 μL 10% pluronic acid, and 20.0 mg DB71 in the 1× FLIPR assay buffer. • 3. Load Cells with 1× Loading Buffer • 4. Remove cell plates from the incubator • 5. Add 100 μL of 1× Loading Buffer per well of 96-well plates or 25 μL per well of 384-well plates. • 6. Incubate plates at 37° C. for 30 minutes. • 7. Run the FLIPR Membrane Potential Assay • 7.1 Make 5× compound plate prior to running the FLIPR assay. Dissolve 27.5 mg of ATP (Sigma Cat# A3377) in 1 mL of sterile water to make a 50 mM stock solution. […] Choose p2x2.fcf for experimental setup in the FLIPR software. Set up the appropriate experiment parameters. • 7.3 After incubation, transfer the plates directly to FLIPR and begin the Membrane Potential Assay. • 8. Run FLIPR and perform data analysis.
DiSBAC1(3), DiSBAC2(3), DiSBAC3(3), DiSBAC4(3), DiBAC1(3) and DiBAC4(3) are dissolved in DMSO (1 mM). The stock solutions are respectively used to assay membrane potential changes in the P2X2 cells in combination with FLIPR™ as described in Example 2.

[2] = assay type: physicochemical; settings: compared with the other oxonol dyes
Method: (§1) DiSBAC1(3), DiSBAC2(3), DiSBAC3(3), DiSBAC4(3), DiBAC1(3) and DiBAC4(3) are dissolved in DMSO (3 mM). The DMSO stock solutions are respectively partitioned in 1:1 octanol/water mixture. The concentrations of the oxonol dyes in octanol and water layers are determined by absorption spectra.

[3] = Octanol/water partition of DiBAC and DiSBAC dyes, read by absorption spectra; assay type: physicochemical; settings: for Absorbance in Octanol / Absorbance in Water: 3 mM DMSO stock partitioned in 1:1 octanol/water; for Absorbance in Octanol: octanol layer; for Absorbance in Water: water layer; for Absorbance in Water/Absorbance in Octanol: 1:1 octanol/water partition; for Relative Values: water/octanol ratio relative to DiBAC1(3) (DiBAC dyes) or DiSBAC1(3) (DiSBAC dyes)
Method: as §1

PC12 = test: DiSBAC1(3) as fluorescent indicator of transmembrane potential depolarization of PC12 cells; assay type: cell-based, rat; settings: 75 mM potassium gluconate, 2.5 μM dye, 200 μM Direct Blue 71
[4] = tested on: voltage-gated sodium channels; assay type: cell-based, rat

Structure (SMILES)	EC50 [1] [µM]	Fluorescence enhancement by 10 μM ATP stimulation (in folds) (P2X2 cells) [folds]	Response speed (P2X2 cells)	Response to membrane potential change (speed, in words) (P2X2 cells)	Response to membrane potential change (speed, in words) (P2X2 cells; listed as DiBAC1 (3))	Signal strength (P2X2 cells)	Water solubility [2]	Absorbance in Octanol [3]	Absorbance in Water [3]	Absorbance in Water/Absorbance in Octanol [3]	Relative Values [3]	Sensitivity to membrane potential change (P2X2 cells; compared with the rest of the DiSBACs)	Fluorescence change on cell depolarization (PC12)	Hydrophilicity ([3]; compared with the other oxonol dyes)	Change in membrane potential (fluorescence increase) upon potassium addition [4]
Nc1ncnc2c1ncn2[C@@H]1O[C@H](COP(=O)(O)OP(=O)(O)OP(=O)(O)O)[C@@H](O)[C@H]1O [ATP, adenosine 5′-triphosphate]	0.01 to 0.1														
CN1C(=O)C(=CC=Cc2c(O)n(C)c(=O)n(C)c2=O)C(=O)N(C)C1=O [DiBAC1(3)]		3.7	fast	much faster response	faster response	stronger signal	greater water solubility	0.3104	1.297	4.179	1				
CCCCN1C(=O)C(=CC=Cc2c(O)n(CCCC)c(=O)n(CCCC)c2=O)C(=O)N(CCCC)C1=O [DiBAC4(3)]		3.3	slow					2.854	0.002501	0.00088	0.00021				
CN1C(=O)C(=CC=Cc2c(O)n(C)c(=S)n(C)c2=O)C(=O)N(C)C1=S [DiSBAC1(3), Bis-(1,3-dimethylthiobarbituric acid)trimethine oxonol]		108.5	fast	faster response		stronger signal		0.9126	0.06147	0.0674	1	much more sensitive	increased DiSBAC1(3) fluorescence	much more hydrophilic	
CCN1C(=O)C(=CC=Cc2c(O)n(CC)c(=S)n(CC)c2=O)C(=O)N(CC)C1=S [DiSBAC2(3)]		38.6	moderate					2.187	0.01143	0.0052	0.078				
CCCN1C(=O)C(=CC=Cc2c(O)n(CCC)c(=S)n(CCC)c2=O)C(=O)N(CCC)C1=S [DiSBAC3(3)]		14.5	slow					4.331	0.002256	0.0005	0.0077				
CCCCN1C(=O)C(=CC=Cc2c(O)n(CCCC)c(=S)n(CCCC)c2=O)C(=O)N(CCCC)C1=S [DiSBAC4(3)]		2.3	slow					3.226	0.003318	<0.0010	<0.0077				
NC1=N[C@H](O)[C@H]2[C@H]3O[C@]4(O)O[C@@H]([C@@H](O)[C@@]2(N1)[C@@H]4O)[C@]3(O)CO [TTX, tetrodotoxin]															smaller increase in fluorescence
